Holding throughout (format): cell-based
Data set [1] deals with Vero (kidney epithelial cells; ATCC CCL-81). Kind of data set: Cytotoxicity assay (CellTiter-Glo cell viability, 72 hours). To be noted: Vero cells, 72 hours, growth inhibition; read-out: Cytotoxicity IC50. The essentials: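 Viability measured by CellTiter-Glo luminescence after 72-hour compound exposure (serial dilutions, DMSO control) of Vero monolayers seeded at 5000 cells/well in 10% FBS DMEM. IC50 values are the range of two biologically independent experiments, each run in duplicate.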

The test system of data set [2] is Bacillus subtilis, ATCC 23857. Nature of the data set: Minimal inhibitory concentration assay (microbroth dilution). The essentials:
(§1)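 Paired MICs against USA 300 and its ClpP-inactivated counterpart test whether killing runs through ClpP. All strains: two-fold broth dilutions from 200 μM final, ~10^5 cfu/mL inoculum, overnight at 37 °C in air, lowest growth-free concentration read by eye.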
In general terms: Broth dilution looks for growth in wells or tubes with falling amounts of substance.

In data set [3] the test system is Enterococcus faecalis, ATCC 33186. The data set is described as above. The essentials:
as §1

Data set [4] deals with Staphylococcus aureus, ATCC 29213. The description is as above. To be noted: ATCC29213, read-out: Minimal Inhibitory Concentrations S. aureus ATCC 29213. In outline:
as §1

Data set [5] has as its system Staphylococcus aureus, NRS70. Described as above. In outline:
as §1

In data set [6] the test system is Streptococcus pneumoniae, DAW27. The description is as above. To be noted: DAW27, read-out: Minimal Inhibitory Concentrations S. pneumoniae DAW27. In outline: as §1
In data set [7] the test system is Streptococcus pyogenes, ATCC 700294. Described as above. The essentials:
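Plates with two-fold compound dilution series in broth were incubated overnight, aerobically, at 37° C, following CLSI microdilution guidance.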

Data set [8] relates to Staphylococcus aureus, USA 300. Nature of the data set: Minimal inhibitory concentration assay. To be noted: USA300, read-out: Minimal Inhibitory Concentrations S. aureus USA 300. The essentials:
as §1

Setting [9] is: Bacillus subtilis, ATCC23857, read-out: Minimal Inhibitory Concentrations B. subtilis ATCC 23857.
Where [10] appears, read: Enterococcus faecalis, ATCC33186, read-out: Minimal Inhibitory Concentrations E. faecalis ATCC 33186.
The mark [11] stands for this setting: Staphylococcus aureus, NRS70, read-out: Minimal Inhibitory Concentrations S. aureus NRS70.
Where [12] appears, read: Streptococcus pyogenes, ATCC700294, read-out: Minimal Inhibitory Concentrations S. pyogenes ATCC 700294.
[13] abbreviates: Bacillus subtilis, ATCC23857; read-out: Minimal Inhibitory Concentrations B. subtilis ATCC 23857.
[14] abbreviates: Enterococcus faecalis, ATCC33186; read-out: Minimal Inhibitory Concentrations E. faecalis ATCC 33186.
[15] abbreviates: Staphylococcus aureus, NRS70; read-out: Minimal Inhibitory Concentrations S. aureus NRS70.
The mark [16] stands for this setting: Streptococcus pyogenes, ATCC700294; read-out: Minimal Inhibitory Concentrations S. pyogenes ATCC 700294.

Molecules are shown by their SMILES. Converted amounts (≈) assume the structure as drawn. Read-outs that look alike come from different tables or passages of the source.

As to `C[C@@H]1C[C@H]2C(=O)OC[C@H](NC(=O)[C@H](Cc3ccccc3)NC(=O)Nc3ccc4c(c3)CCN4C)C(=O)N3CCC[C@H]3C(=O)N3CCCC[C@H]3C(=O)N[C@@H](C)C(=O)N2C1` [Compound 11, (S)—N-((2R,6S,8aS,14aS,20S,23aS)-2,6-dimethyl-5,8,14,19,23-pentaoxooctadecahydro-1H,5H,14H,19H-pyrido[2,1-i]dipyrrolo[2,1-c:2′,1′-l][1]oxa[4,7,10,13]tetraazacyclohexadecin-20-yl)-2-(3-(1-methylindolin-5-yl)ureido)-3-phenylpropanamide], the IC50 (commonly the concentration that inhibits the measured activity by half) in data set [1] came to 76 ± 10.6 µM. For the same compound, the MIC in data set [2] (setting [9]) stood at 1.25 µM (≈ 0.999 µg/mL); in data set [3] (setting [10]) it was 0.6 µM (≈ 0.479 µg/mL); in data set [4], 2.5 µM (≈ 2 µg/mL); in data set [5] (setting [11]), 1.25 µM (≈ 0.999 µg/mL); in data set [6], 0.3 µM (≈ 0.24 µg/mL); in data set [7] (setting [12]), 0.6 µM (≈ 0.479 µg/mL).

Take `C[C@@H]1C[C@H]2C(=O)OC[C@H](NC(=O)[C@H](Cc3ccccc3)NC(=O)Nc3ccc4ccn(C)c4c3)C(=O)N3CCC[C@H]3C(=O)N3CCCC[C@H]3C(=O)N[C@@H](C)C(=O)N2C1` [Compound 12, (S)—N-((2R,6S,8aS,14aS,20S,23aS)-2,6-dimethyl-5,8,14,19,23-pentaoxooctadecahydro-1H,5H,14H,19H-pyrido[2,1-i]dipyrrolo[2,1-c:2′,1′-l][1]oxa[4,7,10,13]tetraazacyclohexadecin-20-yl)-2-(3-(1-methyl-1H-indol-6-yl)ureido)-3-phenylpropanamide]: the IC50 in data set [1] turned out to be 90 ± 7.6 µM. For the same compound, the MIC in data set [2] (setting [9]) came to 2.5 µM (≈ 1.99 µg/mL); in data set [3] (setting [10]), 1.25 µM (≈ 0.996 µg/mL); in data set [4] it was 2.5 µM (≈ 1.99 µg/mL); in data set [5] (setting [11]), 2.5 µM (≈ 1.99 µg/mL); in data set [6], 0.3 µM (≈ 0.239 µg/mL); in data set [7] (setting [12]), 0.6 µM (≈ 0.478 µg/mL).

As for `C[C@@H]1C[C@H]2C(=O)OC[C@H](NC(=O)[C@H](Cc3cc(F)cc(F)c3)NC(=O)Nc3ccc(OC(F)(F)F)cc3)C(=O)N3CCC[C@H]3C(=O)N3CCCC[C@H]3C(=O)N[C@@H](C)C(=O)N2C1` [Compound 13, (S)-3-(3,5-difluorophenyl)-N-((2R,6S,8aS,14aS,20S,23aS)-2,6-dimethyl-5,8,14,19,23-pentaoxooctadecahydro-1H,5H,14H,19H-pyrido[2,1-i]dipyrrolo[2,1-c:2′,1′-l][1]oxa[4,7,10,13]tetraazacyclohexadecin-20-yl)-2-(3-(4-(trifluoromethoxy)phenyl)ureido)propanamide], the MIC in data set [2] (setting [13]) is 0.08 µM (≈ 0.0691 µg/mL); in data set [3] (setting [14]), 0.04 µM (≈ 0.0346 µg/mL); in data set [4] it was 0.05 µM (≈ 0.0432 µg/mL); in data set [5] (setting [15]) it was 0.8 µM (≈ 0.691 µg/mL); in data set [6], 0.04 µM (≈ 0.0346 µg/mL); in data set [7] (setting [16]), 0.15 µM (≈ 0.13 µg/mL).

With `CCc1ccc(NC(=O)N[C@@H](Cc2cc(F)cc(F)c2)C(=O)N[C@H]2COC(=O)[C@@H]3C[C@@H](C)CN3C(=O)[C@H](C)NC(=O)[C@@H]3CCCCN3C(=O)[C@@H]3CCCN3C2=O)cc1` [Compound 14, (S)-3-(3,5-difluorophenyl)-N-((2R,6S,8aS,14aS,20S,23aS)-2,6-dimethyl-5,8,14,19,23-pentaoxooctadecahydro-1H,5H,14H,19H-pyrido[2,1-i]dipyrrolo[2,1-c:2′,1′-l][1]oxa[4,7,10,13]tetraazacyclohexadecin-20-yl)-2-(3-(4-ethylphenyl)ureido)propanamide], the MIC in data set [2] (setting [13]) turned out to be 0.08 µM (≈ 0.0646 µg/mL); in data set [3] (setting [14]), 0.04 µM (≈ 0.0323 µg/mL); in data set [4], 0.1 µM (≈ 0.0808 µg/mL); in data set [5] (setting [15]), 0.08 µM (≈ 0.0646 µg/mL); in data set [6], 0.04 µM (≈ 0.0323 µg/mL); in data set [7] (setting [16]) it was 0.8 µM (≈ 0.646 µg/mL).

Turning to `CN(C)[C@@H]1C(O)=C(C(N)=O)C(=O)[C@@]2(O)C(O)=C3C(=O)c4c(O)cccc4[C@@](C)(O)[C@H]3C[C@@H]12` [Tetracycline, tetracycline, reference compound], the MIC came to 1.6 µM (≈ 0.711 µg/mL) in data set [2] (setting [13]); 0.05 µM (≈ 0.0222 µg/mL) in data set [3] (setting [14]); 0.1 µM (≈ 0.0444 µg/mL) in data set [4]; 0.05 µM (≈ 0.0222 µg/mL) in data set [5] (setting [15]); 0.1 µM (≈ 0.0444 µg/mL) in data set [6]; 0.1 µM (≈ 0.0444 µg/mL) in data set [7] (setting [16]). In addition, in data set [8], the MIC stood at 0.1 µM (≈ 0.0444 µg/mL).

For the origin of these results see US10457707B2, “Substituted urea depsipeptide analogs as activators of the CLPP endopeptidase” (priority 2015, dated 2019).
